From the supplement of paper PMC10307832

Assays:
Assay in all cases: relative viability (nuclei count vs DMSO), 5 days (fraction); higher = more cells survive
[1] = compound: c1ccc2c(CCNc3ccc(Nc4ccncc4)cc3)c[nH]c2c1 [Serdemetan] + CC(=O)Nc1cccc(-n2c(=O)n(C3CC3)c(=O)c3c(Nc4ccc(I)cc4F)n(C)c(=O)c(C)c32)c1 [Trametinib] (partner 0.02 µM)
Procedure, shortened: (§1)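 Relative viability divides the nuclei count in treated wells by that in vehicle wells. Lung cancer cell lines were seeded in 1536-well plates, dosed by pin tool the next day, and fixed and stained after 5 days in one step with final 0.05% Triton X-100, 1% formaldehyde and 1 ug/ml Hoechst. Dosing was a single drug or a fixed anchor-drug dose plus five library-drug doses (not always all listed) in √10 steps, and values are medians of duplicate plates imaged at 4×.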

[2] = compound: C1CC(C2=C(C1)C3=C(N2)C=CC(=C3)Cl)C(=O)N [Selisistat] + Nc1nc2[nH]cc(CCc3ccc(C(=O)N[C@@H](CCC(=O)O)C(=O)O)cc3)c2c(=O)[nH]1 [Pemetrexed] (partner 0.2 µM)
Procedure, shortened: as §1

[3] = compound: c1ccc2c(CCNc3ccc(Nc4ccncc4)cc3)c[nH]c2c1 [Serdemetan] + Nc1nc2[nH]cc(CCc3ccc(C(=O)N[C@@H](CCC(=O)O)C(=O)O)cc3)c2c(=O)[nH]1 [Pemetrexed] (partner 0.2 µM)
Procedure, shortened: as §1

[4] = compound: c1ccc2c(CCNc3ccc(Nc4ccncc4)cc3)c[nH]c2c1 [Serdemetan] + COc1cc2c(Oc3ccc(NC(=O)C4(C(=O)Nc5ccc(F)cc5)CC4)cc3F)ccnc2cc1OCCCN1CCOCC1 [Foretinib] (partner 0.25 µM)
Procedure, shortened: as §1

Row | Cell Line | relative viability ([1]; first compound 0.04 µM) | relative viability ([1]; first compound 0.1265 µM) | relative viability ([1]; first compound 0.4 µM) | relative viability ([1]; first compound 1.265 µM) | relative viability ([1]; first compound 4 µM) | relative viability ([2]; first compound 0.4 µM) | relative viability ([2]; first compound 1.265 µM) | relative viability ([2]; first compound 4 µM) | relative viability ([2]; first compound 12.65 µM) | relative viability ([2]; first compound 40 µM) | relative viability ([3]; first compound 0.04 µM) | relative viability ([3]; first compound 0.1265 µM) | relative viability ([3]; first compound 0.4 µM) | relative viability ([3]; first compound 1.265 µM) | relative viability ([3]; first compound 4 µM) | relative viability ([4]; first compound 0.04 µM) | relative viability ([4]; first compound 0.1265 µM) | relative viability ([4]; first compound 0.4 µM) | relative viability ([4]; first compound 1.265 µM) | relative viability ([4]; first compound 4 µM)
1 | NCI-H1650 | 0.58 | 0.633 | 0.49 | 0.611 | 0.516 | 0.359 | 0.348 | 0.354 | 0.397 | 0.326 | 0.374 | 0.328 | 0.371 | 0.343 | 0.264 | 1 | 1.21 | 0.989 | 1.14 | 0.658
2 | BEN | 0.944 | 0.853 | 1.06 | 1.03 | 0.794 | 0.876 | 0.614 | 0.532 | 0.698 | 0.68 | 0.717 | 0.614 | 0.849 | 0.955 | 0.634 | 0.631 | 0.682 | 0.794 | – | 0.609
3 | EMC-BAC-2 | 0.833 | 0.889 | 0.886 | 0.754 | 0.719 | 0.406 | 0.422 | 0.522 | 0.331 | 0.352 | 0.457 | 0.446 | 0.437 | 0.346 | 0.4 | 0.969 | 1.02 | 1.04 | 0.809 | 0.676
4 | LU99A | 0.574 | 0.453 | 0.483 | 0.277 | 0.224 | 0.169 | 0.176 | 0.21 | 0.184 | 0.163 | 0.177 | 0.182 | 0.345 | 0.15 | 0.16 | 0.881 | 0.702 | 0.487 | 0.245 | 0.223
5 | ABC-1 | – | – | – | – | – | – | – | – | – | – | – | – | – | – | – | 0.855 | 1.08 | 0.766 | 0.604 | 0.418
6 | NCI-H2170 | 0.912 | 0.988 | 0.87 | 0.9 | 0.944 | 0.249 | 0.264 | 0.25 | 0.244 | 0.242 | 0.231 | 0.288 | 0.248 | 0.266 | 0.284 | 1.02 | 0.97 | 1.05 | 0.637 | 1.14
7 | NCI-H1299 | – | – | – | – | – | – | – | – | – | – | – | – | – | – | – | 1.05 | 1.07 | 1.02 | 0.92 | 0.755
8 | EBC-1 | – | – | – | – | – | – | – | – | – | – | – | – | – | – | – | 0.12 | 0.123 | 0.107 | 0.124 | 0.129
9 | NCI-H2347 | 0.286 | 0.253 | 0.289 | 0.259 | 0.25 | 0.526 | 0.425 | 0.374 | 0.411 | 0.432 | 0.498 | 0.429 | 0.42 | – | 0.445 | 1.08 | 0.831 | 0.89 | 0.954 | 0.604
10 | NCI-H1993 | 0.549 | 0.516 | 0.413 | 0.599 | 0.494 | 0.581 | 0.711 | – | 0.554 | 0.592 | 0.577 | 0.581 | 0.591 | 0.589 | 0.546 | 0.888 | 0.813 | 0.692 | 0.76 | 0.672
11 | NCI-H322M | 0.502 | 0.528 | 0.488 | 0.427 | 0.431 | 0.558 | 0.633 | – | 0.515 | 0.618 | 0.576 | 0.583 | 0.622 | 0.645 | 0.628 | 0.946 | 0.887 | 0.909 | 0.963 | 0.481
12 | NCI-H838 | 0.47 | 0.538 | 0.555 | 0.526 | 0.575 | 0.243 | 0.243 | 0.222 | 0.228 | 0.226 | 0.232 | 0.263 | 0.249 | 0.209 | 0.235 | 1.03 | 0.983 | 1.02 | 0.951 | 1.09
13 | HARA | 0.529 | 0.658 | 0.649 | 0.42 | 0.641 | 0.266 | 0.27 | – | 0.303 | 0.215 | 0.202 | 0.254 | 0.226 | 0.196 | 0.257 | 0.84 | 0.903 | 0.871 | 0.585 | 0.452
14 | NCI-H2087 | 0.223 | 0.185 | 0.191 | 0.168 | 0.169 | 0.681 | 0.624 | – | 0.634 | 0.691 | 0.704 | 0.611 | 0.643 | 0.404 | 0.28 | 1.01 | 0.92 | 0.858 | 0.447 | 0.355
15 | NCI-H1792 | 0.401 | 0.458 | 0.304 | 0.248 | 0.142 | 0.696 | 0.633 | – | 0.913 | 0.755 | 0.74 | 0.88 | 0.761 | 0.38 | 0.404 | – | – | – | – | –
16 | HCC-44 | 1.08 | 1.05 | 0.968 | 0.964 | 0.837 | 0.681 | 0.675 | 0.655 | 0.685 | 0.691 | 0.62 | 0.621 | 0.577 | 0.574 | 0.644 | – | – | – | – | –
17 | A549 | – | – | – | – | – | – | – | – | – | – | – | – | – | – | – | 0.964 | 0.969 | 1.02 | 0.627 | 0.177
18 | NCI-H1563 | – | – | – | – | – | 0.831 | 0.857 | 0.713 | 0.664 | 0.611 | 0.827 | 0.641 | 0.627 | 0.393 | 0.602 | 0.82 | 0.897 | 0.745 | 0.69 | 0.64
19 | IA-LM | – | – | – | – | – | – | – | – | – | – | – | – | – | – | – | 1.04 | 1.06 | 0.877 | 0.999 | 0.414
20 | NCI-H1703 | – | – | – | – | – | – | – | – | – | – | – | – | – | – | – | 0.335 | 0.338 | 0.383 | 0.289 | 0.341
21 | NCI-H727 | 0.376 | 0.37 | 0.367 | 0.382 | 0.33 | – | – | – | – | – | – | – | – | – | – | 0.831 | 0.737 | 1.32 | 0.634 | 0.437
22 | NCI-H1648 | – | 0.534 | 0.393 | 0.317 | 0.296 | 0.562 | 0.584 | – | 0.599 | 0.743 | – | 0.714 | 0.624 | 0.554 | 0.476 | – | – | – | – | –
